Measurements taken from US20080113907A1, “Uses Of Galectin-2” (Charite-Universitat-Smedizin Berlin, priority 2004, published 2008).
Where a SMILES comes first, the peptide text is derived from it. The star is where a group is joined. Cbz = O=C(OCc1ccccc1)*; CH2F = FC*

What was measured:
PBT [1] = assay: Extent of apoptosis and necrosis (annexin-V, PI, DAPI staining); format: cell-based, human; conditions: for effect on galectin-1 induced cell death / effect on galectin-2 induced T cell apoptosis / effect on galectin-7 induced cell death: caspase inhibitor 50 μM; for effect on galectin-2 induced apoptosis: 50 mM
Experimental: Apoptosis was determined by monitoring fragmentation of nuclear DNA and access of annexin V to c ell surface phosphatidylserine (PS). To detect fragmentation of nuclear DNA, T cells were cultured in the presence and absence of the respective galectins, with or without blocking antibodies or further activation for 48 h. Thereafter, cells were fixed in 0.2 ml of 37% formaldehyde for 10 min at room temperature. The cells were then treated with 1 ml PBS containing 0.2% Nonidet P-40 (Sigma-Aldrich) for 2 min at room temperature and then rinsed once in PBS. The apoptotic cells were detected by staining of nuclear DNA with 4,6-diamino-2-phenylindole (DAPI) (Calbiochem). DAPI was added at a concentration of 0.2 ng/ml of PBS and cells were incubated at room temperature for 20 min in this solution. Cells were rinsed twice in PBS and the coverslips were maintained cell side down on a microscope slide and analyzed using a Zeiss Axiovert 135M microscope (Carl Zeiss, Oberkochen, Germany). To detect early phases of apoptosis, access to PS was measured. Cells were cultured as described, harvested at the respective time points, stained with FITC-labeled annexin-V and PI and analyzed by flow cytometry using the CellQuest software program (BD Pharmingen). A minimum of 15,000 cells was monitored in each case.

T cells (PBT, LPT) = assay: Adhesion assay to collagen type I and fibronectin; format: cell-based, human; conditions: PBT
Experimental: 96 well flat-bottom plates were precoated overnight at 4° C. with 12 μg/well fibronectin (Chemicon) in DPBS, 40 μg/well collagen type I (Sigma-Aldrich) in 0.1 M acetic acid, or 3% BSA (Sigma-Aldrich) in DPBS as a control and then washed three times with DPBS. Freshly isolated T cells were fluorescently-labelled with 5 μM calcein-AM (Molecular Probes, Eugene, Oreg.) for 30 min at 37° C. in 5% CO2 at 5×10^6 cells/ml in RPMI. The cells were then washed three times with RPMI containing 5% FCS. Calcein-labelled T cells were resuspended in RPMI and 5×10^5 T cells/well were added to 96-well plates containing purified ECM components or BSA for the indicated times. Saturating concentrations of integrin-blocking mAbs (predetermined by flow cytometry) were preincubated with T cells for 30 min at 37° C. before adding T cells to the wells for the adhesion assay. Nonadherent cells were removed by a standardized washing technique that was developed to minimize background binding, which includes both an orbital and a rocking motion repeated three times with RPMI. Adhesion was quantified with a multiwell fluorescent spectrophotometer (Tecan, Groedig, Austria). For each experimental group the results were expressed as the mean percentage±SD of bound T cells from triplicate wells.

PBT [2] = assay: Analysis of T cell cycling (DNA content, cyclin B1, cell cycle regulators); format: cell-based, human; conditions: anti-CD3 activated PBT; dropped from 8% (galectin-1) and 7% (galectin-7)
Experimental: For immunoblotting cells were washed in PBS, and lysed in cell lysis buffer (1% Triton-X, 0.5% NP-40, 0.1% SDS, 0.5% sodium deoxycholate, 5 mM EDTA, 50 mM and 50 mM protease- and phosphatase-inhibitor cocktail 2, 1 mM PMSF, 100 μg/ml trypsin-chymotrypsin inhibitor, 100 μg/ml chymostatin in PBS). The concentration of proteins in each lysate was measured using the Bio-Rad protein assay (Bio-Rad Laboratories, Hercules, Calif.). Equivalent amounts of protein (10 μg) were fractionated on a 10-20% Tris-glycine gel and electrotransferred to a nitrocellulose membrane (Novex, San Diego, Calif.). Membranes were blocked with 5% milk in 0.1% Tween 20-PBS (Fisher Scientific, Hanover Park, Ill.), followed by incubation for 60 m in at room temperature with the indicated primary antibody. The membranes were washed six times with 0.1% Tween 20-PBS and then incubated for 1 h with the appropriate horseradish peroxidase-conjugated secondary antibody (Santa Cruz Biotechnology), washed, and incubated with the chemiluminescent substrate (Perkin-Elmer, Carlsbad, Calif.) for 5 minutes. The membranes were then exposed to film (Amersham, Arlington Heights, Ill.).
Flow cytometry was performed after staining for DNA content, and cyclin B1, essentially as previously described (21). Briefly, cells were washed twice with PBS, adjusted to 1×10^6 cells/sample and fixed in 90% Methanol at −20° C. After fixation, cells were washed twice with PBS, incubated for 45 min at 4° C. with a cyclin B1-FITC conjugated monoclonal antibody. After the final wash, cells were resupended in PBS and 5 μl of RNase (0.6 μg/ml, 30-60 Kunitz Units, Sigma), incubated at 37° C. for 15 min and the chilled on ice. One hundred and twenty five microliters of PI (200 μg/ml) were added prior to analysis by flow cytometry. Each analysis was performed on at least 25.000 events.

[3] = tested on: dextran sodium sulfate induced colitis; assay: Prevention of DSS induced acute colitis, disease activity index (DAI); format: in vivo, Balb/c mice; conditions: 2 mg/kg i.p.; 10 days after induction; control 6.5 ± 0.3
Experimental: Colitis was induced in 8- to 10-week-old, female, Balb/c mice (Jackson Laboratories, Bar Harbor, Me.) by adding 5% DSS (Sigma Chemical Co., St. Louis, Mo.) (Dextran Sodiumsulfate (DSS) to their drinking water and allowing them to drink ad libitum. Groups of mice were treated either with 1 mg/kg BW (body weight) galectin-2 intraperitoneally or PBS 2 h before DSS administration. Mice were weighed and inspected for diarrhea and rectal bleeding. Seven days after induction of colitis by DSS, mice were killed, their entire colon was resected, and its length was measured and weighed. The disease activity index (DAI; i.e., the combined score of weight loss and bleeding) was determined according to a standard scoring system.
The disease activity index: Loss in bodyweight: 0=no loss; 1=5% to 10%; 2=10% to 15%; 3=15% to 20%; 4 ? 20%.
Hemoccult: 0=no blood; 2=positive; 4=gross blood.
In this experiment the DAI ranges from 0 to 8. The higher the DAI score the more severely the animal had been affected by colitis.
Colitis was induced in 8- to 10-week-old, female, Balb/c mice (Jackson Laboratories, Bar Harbor, Me.) by adding 5% DSS (Sigma Chemical Co., St. Louis, Mo.) (Dextran Sodiumsulfate (DSS) to their drinking water and allowing them to drink ad libitum. Groups of respectively 10 mice were treated either with Galectin-2 subcutaneously (s.c.) or intraperitoneally (i.p.) 2 h before DSS administration. In one trial with 10 mice the doses of Galectin-2 was doubled (administered i.p.) and compared to the treatment of 10 mice with Tacrolimus (FK506) (administered i.p.) in equal concentrations. In parallel a group of 10 mice was treated with 0.9% NaCl instead of Galectin-2 as control. Mice were weighed and inspected for diarrhea and rectal bleeding. 10 days after induction of colitis by DSS, mice were killed, their entire colon was resected, and its length was measured and weighed. The disease activity index (DAI; i.e., the combined score of weight loss and bleeding) was determined according to a standard scoring system.
The disease activity index: Loss in body weight: 0=no loss; 1=5% to 10%; 2=10% to 15%; 3=15% to 20%; 4 ? 20%.

T cells = assay: Binding of biotinylated Gal-2 to T lymphocytes (flow cytometry); design: species or system human; conditions: 50 mM
Experimental: To measure Gal-2 binding to T lymphocytes, aliquots of cell suspensions were kept as controls or stimulated for 1, 6, 12, 24, 48, and 72 h with anti-CD3 mAb or PMA and PHA and incubated in the presence of 5 μg/ml biotin-labeled Gal-2. Cells were then harvested, washed and stained with anti-CD3-FITC mAb and APC-labeled streptavidin (Biosource) followed by flow cytofluorometric analysis. Cells cultured in the absence of biotin-labeled Gal-2 and stained with FITC-labeled mouse IgG (BD Pharmingen) or APC-labeled streptavidin served as isotype controls. Each analysis was performed on at least 20,000 events.

Z-Ile-Glu-Thr-Asp(OMe)-fluoromethylketone [zIETD]
effect on galectin-1 induced cell death (PBT [1]): blocked
effect on galectin-2 induced T cell apoptosis (PBT [1]): had no effect
effect on galectin-7 induced cell death (PBT [1]): inhibited

COC(=O)CC[C@H](NC(=O)[C@H](CC(=O)OC)NC(=O)OCc1ccccc1)C(=O)N[C@H](C(=O)N[C@@H](CC(=O)OC)C(=O)CF)C(C)C [zDEVD, Z-Asp-Glu-Val-Asp(OMe)-fluoromethylketone]
effect on galectin-1 induced cell death (PBT [1]): impair
effect on galectin-2 induced T cell apoptosis (PBT [1]): significantly inhibited
effect on galectin-7 induced cell death (PBT [1]): inhibited

COC(=O)C[C@H](NC(=O)[C@H](C)NC(=O)[C@@H](NC(=O)OCc1ccccc1)C(C)C)C(=O)CF [zVAD, Z-Val-Ala-Asp(OMe)-fluoromethylketone] (Cbz-Val-Ala-Asp(OMe)-CH2F)
effect on galectin-1 induced cell death (PBT [1]): impair
effect on galectin-2 induced T cell apoptosis (PBT [1]): significantly inhibited
effect on galectin-7 induced cell death (PBT [1]): inhibited

COC(=O)CC[C@H](NC(=O)[C@H](CC(C)C)NC(=O)OCc1ccccc1)C(=O)N[C@@H](Cc1cnc[nH]1)C(=O)N[C@@H](CC(=O)OC)C(=O)CF [zLEHD, Z-Leu-Glu(Ome)-His-Asp-(Ome)-Ch2F] (Cbz-LE(OMe)HD(OMe)-CH2F)
effect on galectin-1 induced cell death (PBT [1]): blocked
effect on galectin-2 induced T cell apoptosis (PBT [1]): significantly inhibited
effect on galectin-7 induced cell death (PBT [1]): not

galectin-7: another homodimeric proto-type galectin used for comparison
effect on PBT adhesion to collagen or fibronectin (T cells (PBT, LPT)): failed to significantly alter PBT adhesion to collagen or fibronectin
PBT apoptosis relative to galectin-2 (PBT [1]; stimulated T cells): induced PBT apoptosis comparable to galectin-2
cyclin B1 expression (PBT [2]): 1%

O=P1(N(CCCl)CCCl)NCCCO1 (stereo not drawn) [cyclophosphamide]
effect on galectin-2 induced T cell death (PBT [1]; 0, 10, 1000 nM, data not shown): failed to modulate galectin-2 induced T cell death

C=CC[C@@H]1/C=C(\C)C[C@H](C)C[C@H](OC)[C@H]2O[C@@](O)(C(=O)C(=O)N3CCCC[C@H]3C(=O)O[C@H](/C(C)=C/[C@@H]3CC[C@@H](O)[C@H](OC)C3)[C@H](C)[C@@H](O)CC1=O)[C@H](C)C[C@@H]2OC [Tacrolimus, reference compound]
DAI (disease activity index) [3]: 2.4 ± 0.5,
apoptosis and necrosis of stimulated and unstimulated T cells (PBT [1]; 0, 50, 100 μg/ml, 24 h, with or without anti-CD3): makes no distinction between stimulated and unstimulated T-cells and mainly induces necrosis

OC[C@H]1O[C@@](CO)(O[C@H]2O[C@H](CO)[C@@H](O)[C@H](O)[C@H]2O)[C@@H](O)[C@@H]1O [sucrose, reference compound]
effect on Gal-2 staining intensity of T cells (T cells; not shown): failed to affect the staining intensity
effect on galectin-2 induced apoptosis (PBT [1]): not

OC[C@H]1O[C@@H](O[C@H]2[C@H](O)[C@@H](O)C(O)O[C@@H]2CO)[C@H](O)[C@@H](O)[C@H]1O (stereo partly drawn) [lactose, reference compound]
reduction of Gal-2 binding to T cells (T cells; unstimulated T cells): more than 70%
effect on galectin-2 induced apoptosis (PBT [1]): largely inhibited

COC(=O)C[C@H](NC(=O)[C@H](C)NC(=O)[C@@H](NC(=O)[C@H](Cc1ccc(O)cc1)NC(=O)OCc1ccccc1)C(C)C)C(=O)CF [zYVAD, Z-Tyr-Val-Ala-Asp(Ome)-Ch2F]
effect on galectin-2 induced T cell apoptosis (PBT [1]): had no effect
effect on galectin-7 induced cell death (PBT [1]): blocked
